{"source": "patent US20260191835A1", "about": "“COMBINATIONS COMPRISING A MENIN-MLL INHIBITOR AND AT LEAST ONE OTHER THERAPEUTIC AGENT” (JANSSEN PHARMACEUTICA NV, priority 2022, published 2026)", "test_system": "MV4-11 cells", "assay": "In vitro proliferation (Cell Titer Glo, 6 days) of Compound 51 in combination with gilteritinib, midostaurin or decitabine, MV4-11", "assay_type": "cell-based", "parameters": "key to Synergy/antagonism call (maxR test), MV4-11 Cell Proliferation: synergy is indicated by “**”; antagonism is indicated by “*”; no asterisk: absence of any asterisk indicates an additive effect", "experimental": "3) In Vitro Proliferation—Menin-MLL Inhibitor in Combination with FLT3 Inhibitor (Gilteritinib or Midostaurin), DNA Intercalating Agent (Idarubicin) or Hypomethylating Agent (Decitabine)\nThe effect of Compound 51 in combination with gilteritinib, midostaurin, idarubicin or decitabine was determined in proliferation assays.\nAML cell lines MOLM-13, OCI-AML3 and MV4-11 were purchased from DSMZ. MOLM-13 were grown in RPMI medium supplemented with 10% Fetal Bovine Serum (FBS) and 1% penicillin/streptomycin. MV4-11 cells were grown in IMDM medium supplemented with 10% FBS and 1% penicillin/streptomycin. OCI-AML3 cells were cultured in 80-90% alpha-MEM (with or without ribo- and deoxyribonucleosides)+10-20% FBS. All cell lines were cultured at 37° C. in 5% CO2 atmosphere.\nAML cell lines (10-20×10^3 cells/well) were seeded in 96-well plates and grown for 6 days in serum (10%)-containing medium in the presence or absence of inhibitors at the indicated concentrations. Proliferation was analyzed by means of a Cell Titer Glo assay using the […] (Promega, Madison, WI, USA), according to the manufacturer's instructions. Data are mean with standard deviation from two to four independent experiments in technical triplicates.\nR-based Biochemically Intuitive Generalized Loewe (BIGL) model implemented with a highest single agent (HSA) null model. Specifically, the BIGL methodology was applied to calculate drug-drug interactions (Van der Borght, K., Tourny, A., Bagdziunas, R. et al. BIGL: Biochemically Intuitive Generalized Loewe null model for prediction of the expected combined effect compatible with partial agonism and antagonism. Sci Rep 7, 17935 (2017); Thas, O., Tourny, A., Verbist, B., Hawinkel, S., Nazarov, M., Mutambanengwe, K., & Bijnens, L. Statistical detection of synergy: New methods and a comparative study. Pharmaceutical Statistics (2021)).\nSynergy matrix results of the BIGL analysis of the cell line data with HSA as mean model calculated on the basis of the cellular metabolic activity using Cell Titer-Glo assay. Bootstrap confidence intervals are indicated. Effect sizes and their confidence intervals are shown. […] No significant average effect if zero is included in the interval.", "key": {"[1]": {"details": "Compound 51 0.01 μm + Decitabine 0.0015 μM"}, "[2]": {"details": "Compound 51 0.01 μm + Decitabine 0.035 μM"}, "[3]": {"details": "Compound 51 0.01 μm + Decitabine 0.15 μM"}, "[4]": {"details": "Compound 51 0.01 μm + Gilteritinib 0.0005 μM"}, "[5]": {"details": "Compound 51 0.05 μm + Decitabine 0.15 μM"}, "[6]": {"details": "Compound 51 0.05 μm + Decitabine 1.5 μM"}, "[7]": {"details": "Compound 51 0.05 μm + Gilteritinib 0.0005 μM"}}, "data": [{"smiles": "CC(=O)N1CCC(CN2CC[C@@H](Cc3cn(-c4ccc(F)cc4C(=O)N(C)C(C)C)c4cncc(C)c34)C2)CC1", "note": "[Compound 51]", "values": [{"measurement": "Effect size (BIGL, HSA null model), MV4-11 Cell Proliferation", "setting": "Compound 51 0.0001 μm + Midostaurin 0.0012 μM", "result": "−0.03"}, {"measurement": "Effect size (BIGL, HSA null model), MV4-11 Cell Proliferation", "setting": "Compound 51 0.0001 μm + Midostaurin 0.006 μM", "result": 0.13}, {"measurement": "Effect size (BIGL, HSA null model), MV4-11 Cell Proliferation", "setting": "Compound 51 0.0001 μm + Midostaurin 0.025 μM", "result": 0.02}, {"measurement": "Effect size (BIGL, HSA null model), MV4-11 Cell Proliferation", "setting": "Compound 51 0.0001 μm + Midostaurin 0.05 μM", "result": "−0.05"}, {"measurement": "Effect size (BIGL, HSA null model), MV4-11 Cell Proliferation", "setting": "Compound 51 0.0001 μm + Midostaurin 0.1 μM", "result": "−0.02"}, {"measurement": "Effect size (BIGL, HSA null model), MV4-11 Cell Proliferation", "setting": "Compound 51 0.0001 μm + Midostaurin 0.5 μM", "result": 0.03}, {"measurement": "Effect size (BIGL, HSA null model), MV4-11 Cell Proliferation", "setting": "Compound 51 0.001 μm + Decitabine 0.0015 μM", "result": "−0.01"}, {"measurement": "Effect size (BIGL, HSA null model), MV4-11 Cell Proliferation", "setting": "Compound 51 0.001 μm + Decitabine 0.035 μM", "result": "−0.03"}, {"measurement": "Effect size (BIGL, HSA null model), MV4-11 Cell Proliferation", "setting": "Compound 51 0.001 μm + Decitabine 0.15 μM", "result": 0}, {"measurement": "Effect size (BIGL, HSA null model), MV4-11 Cell Proliferation", "setting": "Compound 51 0.001 μm + Decitabine 1.5 μM", "result": "−0.05"}, {"measurement": "Effect size (BIGL, HSA null model), MV4-11 Cell Proliferation", "setting": "Compound 51 0.001 μm + Decitabine 3 μM", "result": "−0.04"}, {"measurement": "Effect size (BIGL, HSA null model), MV4-11 Cell Proliferation", "setting": "Compound 51 0.001 μm + Gilteritinib 0.0005 μM", "result": "−0.03"}, {"measurement": "Effect size (BIGL, HSA null model), MV4-11 Cell Proliferation", "setting": "Compound 51 0.001 μm + Gilteritinib 0.005 μM", "result": "−0.01"}, {"measurement": "Effect size (BIGL, HSA null model), MV4-11 Cell Proliferation", "setting": "Compound 51 0.001 μm + Gilteritinib 0.01 μM", "result": "−0.03"}, {"measurement": "Effect size (BIGL, HSA null model), MV4-11 Cell Proliferation", "setting": "Compound 51 0.001 μm + Gilteritinib 0.05 μM", "result": "−0.01"}, {"measurement": "Effect size (BIGL, HSA null model), MV4-11 Cell Proliferation", "setting": "Compound 51 0.001 μm + Gilteritinib 0.3 μM", "result": "−0.01"}, {"measurement": "Effect size (BIGL, HSA null model), MV4-11 Cell Proliferation", "setting": "Compound 51 0.001 μm + Gilteritinib 1 μM", "result": "−0.01"}, {"measurement": "Effect size (BIGL, HSA null model), MV4-11 Cell Proliferation", "setting": "Compound 51 0.001 μm + Midostaurin 0.0012 μM", "result": "−0.02"}, {"measurement": "Effect size (BIGL, HSA null model), MV4-11 Cell Proliferation", "setting": "Compound 51 0.001 μm + Midostaurin 0.006 μM", "result": "−0.01"}, {"measurement": "Effect size (BIGL, HSA null model), MV4-11 Cell Proliferation", "setting": "Compound 51 0.001 μm + Midostaurin 0.025 μM", "result": 0.05}, {"measurement": "Effect size (BIGL, HSA null model), MV4-11 Cell Proliferation", "setting": "Compound 51 0.001 μm + Midostaurin 0.05 μM", "result": 0.07}, {"measurement": "Effect size (BIGL, HSA null model), MV4-11 Cell Proliferation", "setting": "Compound 51 0.001 μm + Midostaurin 0.1 μM", "result": "−0.03"}, {"measurement": "Effect size (BIGL, HSA null model), MV4-11 Cell Proliferation", "setting": "Compound 51 0.001 μm + Midostaurin 0.5 μM", "result": 0.03}, {"measurement": "Effect size (BIGL, HSA null model), MV4-11 Cell Proliferation", "setting": "[1]", "result": "−0.1"}, {"measurement": "Synergy/antagonism call (maxR test), MV4-11 Cell Proliferation", "setting": "[1]", "result": "**"}, {"measurement": "Effect size (BIGL, HSA null model), MV4-11 Cell Proliferation", "setting": "[2]", "result": "−0.11"}, {"measurement": "Synergy/antagonism call (maxR test), MV4-11 Cell Proliferation", "setting": "[2]", "result": "**"}, {"measurement": "Effect size (BIGL, HSA null model), MV4-11 Cell Proliferation", "setting": "[3]", "result": "−0.23"}, {"measurement": "Synergy/antagonism call (maxR test), MV4-11 Cell Proliferation", "setting": "[3]", "result": "**"}, {"measurement": "Effect size (BIGL, HSA null model), MV4-11 Cell Proliferation", "setting": "Compound 51 0.01 μm + Decitabine 1.5 μM", "result": 0.01}, {"measurement": "Effect size (BIGL, HSA null model), MV4-11 Cell Proliferation", "setting": "Compound 51 0.01 μm + Decitabine 3 μM", "result": "−0.05"}, {"measurement": "Effect size (BIGL, HSA null model), MV4-11 Cell Proliferation", "setting": "[4]", "result": "−0.36"}, {"measurement": "Synergy/antagonism call (maxR test), MV4-11 Cell Proliferation", "setting": "[4]", "result": "**"}, {"measurement": "Effect size (BIGL, HSA null model), MV4-11 Cell Proliferation", "setting": "Compound 51 0.01 μm + Gilteritinib 0.005 μM", "result": "−0.02"}, {"measurement": "Effect size (BIGL, HSA null model), MV4-11 Cell Proliferation", "setting": "Compound 51 0.01 μm + Gilteritinib 0.01 μM", "result": "−0.02"}, {"measurement": "Effect size (BIGL, HSA null model), MV4-11 Cell Proliferation", "setting": "Compound 51 0.01 μm + Gilteritinib 0.05 μM", "result": "−0.02"}, {"measurement": "Effect size (BIGL, HSA null model), MV4-11 Cell Proliferation", "setting": "Compound 51 0.01 μm + Gilteritinib 0.3 μM", "result": "−0.02"}, {"measurement": "Effect size (BIGL, HSA null model), MV4-11 Cell Proliferation", "setting": "Compound 51 0.01 μm + Gilteritinib 1 μM", "result": "−0.02"}, {"measurement": "Effect size (BIGL, HSA null model), MV4-11 Cell Proliferation", "setting": "Compound 51 0.01 μm + Midostaurin 0.0012 μM", "result": "−0.06"}, {"measurement": "Effect size (BIGL, HSA null model), MV4-11 Cell Proliferation", "setting": "Compound 51 0.01 μm + Midostaurin 0.006 μM", "result": "−0.13"}, {"measurement": "Effect size (BIGL, HSA null model), MV4-11 Cell Proliferation", "setting": "Compound 51 0.01 μm + Midostaurin 0.025 μM", "result": "−0.14"}, {"measurement": "Effect size (BIGL, HSA null model), MV4-11 Cell Proliferation", "setting": "Compound 51 0.01 μm + Midostaurin 0.05 μM", "result": "−0.11"}, {"measurement": "Effect size (BIGL, HSA null model), MV4-11 Cell Proliferation", "setting": "Compound 51 0.01 μm + Midostaurin 0.1 μM", "result": "−0.04"}, {"measurement": "Effect size (BIGL, HSA null model), MV4-11 Cell Proliferation", "setting": "Compound 51 0.01 μm + Midostaurin 0.5 μM", "result": 0.03}, {"measurement": "Effect size (BIGL, HSA null model), MV4-11 Cell Proliferation", "setting": "Compound 51 0.05 μm + Decitabine 0.0015 μM", "result": 0.02}, {"measurement": "Effect size (BIGL, HSA null model), MV4-11 Cell Proliferation", "setting": "Compound 51 0.05 μm + Decitabine 0.035 μM", "result": "−0.07"}, {"measurement": "Effect size (BIGL, HSA null model), MV4-11 Cell Proliferation", "setting": "[5]", "result": "−0.23"}, {"measurement": "Synergy/antagonism call (maxR test), MV4-11 Cell Proliferation", "setting": "[5]", "result": "**"}, {"measurement": "Effect size (BIGL, HSA null model), MV4-11 Cell Proliferation", "setting": "[6]", "result": "−0.11"}, {"measurement": "Synergy/antagonism call (maxR test), MV4-11 Cell Proliferation", "setting": "[6]", "result": "**"}, {"measurement": "Effect size (BIGL, HSA null model), MV4-11 Cell Proliferation", "setting": "Compound 51 0.05 μm + Decitabine 3 μM", "result": "−0.06"}, {"measurement": "Effect size (BIGL, HSA null model), MV4-11 Cell Proliferation", "setting": "[7]", "result": "−0.18"}, {"measurement": "Synergy/antagonism call (maxR test), MV4-11 Cell Proliferation", "setting": "[7]", "result": "**"}, {"measurement": "Effect size (BIGL, HSA null model), MV4-11 Cell Proliferation", "setting": "Compound 51 0.05 μm + Gilteritinib 0.005 μM", "result": "−0.03"}, {"measurement": "Effect size (BIGL, HSA null model), MV4-11 Cell Proliferation", "setting": "Compound 51 0.05 μm + Gilteritinib 0.01 μM", "result": "−0.02"}, {"measurement": "Effect size (BIGL, HSA null model), MV4-11 Cell Proliferation", "setting": "Compound 51 0.05 μm + Gilteritinib 0.05 μM", "result": "−0.02"}]}]}
